The text below walks through data of ChEMBL document CHEMBL1201862, “PubChem BioAssay data set” (2004).

Some test systems named below: A549; HCC 2998; U-251; SF-268; NCI/ADR-RES; M14; PC-3; HL-60; MDA-N; SW-620; HT-29; KM12; UACC-62; NCI-H226; HOP-18; RXF 393; HCT-15; SNB-19; MOLT-4; HOP-62.
What all share (assay): NCI anticancer screen, dose series, 48 h

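Assay format: 96-well plates, 48-hour exposure. The concentration for 50% growth inhibition is given as GI50.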 Calls of active or inactive are those of the source. Rule as the data show it: active = GI50 up to about 1.1 µM and inactive = higher.

As to `CCN(CC)CC(O)CNc1ccc(NCC(O)CCl)c2c1C(=O)c1ccccc1C2=O` (stereo not drawn), the GI50 with A549 is 9.27 µM (inactive); in the assay with HCC 2998, 7.83 µM (inactive); in the assay on U-251, 10.8 µM (inactive); in the assay with SF-268, 2.65 µM (inactive); with NCI/ADR-RES it was 2.45 µM (inactive); in the assay with M14, 3.3 µM (inactive). Moreover, the GI50 in the assay on PC-3 was 6.47 µM (inactive); in the assay on HL-60 it was 3.54 µM (inactive); in the assay on MDA-N, 5.19 µM (inactive); in the assay on SW-620 it was 1.28 µM (inactive); in the assay on HT-29, 3.31 µM (inactive); with KM12, 4.15 µM (inactive). Further, the GI50 in the assay with UACC-62 is 14.4 µM (inactive); with NCI-H226, 9.95 µM (inactive); in the assay on HOP-18, > 10 µM (inactive); in the assay with RXF 393, 12.6 µM (inactive); with HCT-15 it was 6.1 µM; with SNB-19, 12.2 µM (inactive). Also, the GI50 is 0.484 µM (active) with MOLT-4 and 10.9 µM (inactive) in the assay on HOP-62.
`CCNCCCCNCCCCNCCCCNCCCCNCC`: the GI50 with A549 was 20.7 µM (inactive); in the assay with HCC 2998 it was > 100 µM (inactive); with U-251, > 100 µM (inactive); in the assay on SF-268, 48.8 µM (inactive); with NCI/ADR-RES, > 100 µM (inactive); in the assay on M14, > 100 µM (inactive). Besides, the GI50 with PC-3 was > 100 µM (inactive); in the assay with HL-60, 9.04 µM (inactive); with MDA-N, 12.3 µM (inactive); with SW-620 it was > 100 µM (inactive); in the assay on HT-29, 18.6 µM (inactive); in the assay with KM12 it was 76.6 µM (inactive). The GI50 in the assay on UACC-62 was 14.4 µM (inactive); in the assay with NCI-H226 it was > 100 µM (inactive); in the assay on HOP-18 it was > 100 µM (inactive); in the assay with RXF 393 it was 27.7 µM (inactive); in the assay with HCT-15, above 100 µM; with SNB-19, 99.8 µM (inactive). Further, the GI50 is > 79.6 µM (inactive) with MOLT-4 and 26.4 µM (inactive) in the assay with HOP-62.
Take `COC1(OC)C2(Cl)C(Cl)=C(Cl)C1(Cl)C1c3ccc(C(C)=O)c4cccc(c34)C12` (stereo not drawn): the GI50 with A549 is 23 µM (inactive); in the assay with HCC 2998, 10.2 µM (inactive); in the assay on U-251, 30.3 µM (inactive); in the assay on SF-268 it was 61.1 µM (inactive); in the assay with NCI/ADR-RES it was 36.6 µM (inactive); in the assay with M14, 11.9 µM (inactive). Also, the GI50 in the assay on PC-3 is 14.2 µM (inactive); in the assay with HL-60, 4.42 µM (inactive); in the assay on MDA-N, 14.8 µM (inactive); in the assay on SW-620, > 53.6 µM (inactive); with HT-29, 5.24 µM (inactive); with KM12, 11.7 µM (inactive). Moreover, the GI50 in the assay with UACC-62 was 23.5 µM (inactive); with NCI-H226, 17 µM (inactive); with HOP-18 it was > 100 µM (inactive); in the assay on RXF 393, 27.7 µM (inactive); with HCT-15, 6.24 µM; in the assay on SNB-19, > 59 µM (inactive). Also, the GI50 was 5.47 µM (inactive) with MOLT-4 and 63.4 µM (inactive) with HOP-62.
Turning to `Cc1cc(C)c(-c2noc(-c3ccc(Cl)cc3)c2C2=NCCN2)c(C)c1`, the GI50 was 32.4 µM (inactive) in the assay with A549; 17.8 µM (inactive) in the assay on HCC 2998; 15.7 µM (inactive) in the assay with U-251; 17.3 µM (inactive) in the assay on SF-268; 12.2 µM (inactive) in the assay on M14; 14.4 µM (inactive) in the assay with HL-60. Besides, the GI50 in the assay with SW-620 is 32.4 µM (inactive); in the assay on HT-29 it was 13.3 µM (inactive); in the assay on KM12 it was 21.6 µM (inactive); with UACC-62, 16.8 µM (inactive); in the assay with NCI-H226, 23.8 µM (inactive); in the assay on HOP-18, 1.17 µM (inactive). Also, the GI50 in the assay with RXF 393 was 14.2 µM (inactive); in the assay on HCT-15, 22.2 µM; in the assay on SNB-19, 28.1 µM (inactive); in the assay with MOLT-4, 16.6 µM (inactive); in the assay on HOP-62 it was 22.1 µM (inactive).
Regarding `CCOC(=O)C(=O)Nc1ccc(C)cc1C`, the GI50 in the assay with A549, in the assay with HCC 2998, in the assay on U-251, with SF-268, in the assay on M14 and in the assay on HL-60 was > 100 µM (inactive) throughout. The GI50 in the assay on SW-620, in the assay with HT-29, in the assay with KM12, in the assay on UACC-62, in the assay on NCI-H226 and with HOP-18 was > 100 µM (inactive) throughout. For the same molecule, the GI50 in the assay on RXF 393 is > 100 µM (inactive); in the assay on HCT-15 it was above 100 µM; in the assay with SNB-19 it was > 100 µM (inactive); in the assay on MOLT-4 it was > 100 µM (inactive); with HOP-62, > 100 µM (inactive).
With `S=c1[nH]nc(Cc2ccccc2)c(=S)[nH]1`, the GI50 with A549 is > 69.8 µM (inactive); in the assay on HCC 2998, > 45.9 µM (inactive); with U-251, > 55.1 µM (inactive); in the assay with SF-268, 4.63 µM (inactive); in the assay with NCI/ADR-RES, 49.4 µM (inactive); with M14 it was > 78.9 µM (inactive). In addition, the GI50 was 24.9 µM (inactive) in the assay on PC-3; > 54.8 µM (inactive) in the assay on HL-60; 98.6 µM (inactive) in the assay on MDA-N; > 100 µM (inactive) in the assay with SW-620; > 51.8 µM (inactive) with HT-29; > 79.8 µM (inactive) with KM12. Also, the GI50 was > 25.9 µM (inactive) in the assay on UACC-62; > 95.3 µM (inactive) in the assay with NCI-H226; 25.4 µM (inactive) in the assay with HOP-18; 32.8 µM (inactive) in the assay on RXF 393; above 62.1 µM with HCT-15; > 87.9 µM (inactive) in the assay on SNB-19. Besides, the GI50 in the assay on MOLT-4 is > 59.7 µM (inactive); in the assay with HOP-62, > 75 µM (inactive).
`CCC/C(=N\NC(=S)N1CC2CCC(CC2)C1)c1ccccn1`: the GI50 with A549 was 0.414 µM (active); with HCC 2998 it was 0.344 µM (active); in the assay with U-251, 0.181 µM (active); in the assay on SF-268, 0.641 µM (active); in the assay with M14, 0.0929 µM (active); with PC-3, 0.0906 µM (active). The GI50 with HL-60 is 0.00957 µM (active); in the assay on MDA-N it was 0.685 µM (active); with SW-620, 0.0566 µM (active); in the assay on HT-29 it was 0.0432 µM (active); in the assay on KM12, 0.144 µM (active); in the assay on UACC-62, 0.0479 µM (active). For the same molecule, the GI50 with NCI-H226 was 1.82 µM (inactive); in the assay on HOP-18, 0.149 µM (active); with RXF 393, 0.51 µM (active); with HCT-15 it was 0.0853 µM; in the assay on SNB-19, 0.571 µM (active); in the assay on MOLT-4, 0.0179 µM (active). Also, in the assay on HOP-62, the GI50 was 0.713 µM (active).
As for `Cc1nc(N)c(-c2ccccc2)s1`, the GI50 is 68.9 µM (inactive) in the assay with A549; > 100 µM (inactive) in the assay on HCC 2998; > 48.5 µM (inactive) in the assay on U-251; > 100 µM (inactive) with SF-268; 40.9 µM (inactive) with M14; 28.6 µM (inactive) with HL-60. Besides, the GI50 with SW-620 is 18.3 µM (inactive); in the assay with HT-29, > 58.3 µM (inactive); in the assay with KM12, > 74.6 µM (inactive); with UACC-62, > 72.1 µM (inactive); in the assay on NCI-H226, > 100 µM (inactive); with HOP-18, > 100 µM (inactive). The GI50 in the assay with RXF 393 was > 48.2 µM (inactive); with HCT-15, 33.8 µM; in the assay with SNB-19 it was 80.7 µM (inactive); in the assay on MOLT-4, > 76.7 µM (inactive); in the assay with HOP-62 it was > 100 µM (inactive).
With `ClCCN(CC#CCCCC#CCN(CCCl)CCCl)CCCl`, the GI50 was 8.99 µM (inactive) in the assay with A549; 18.4 µM (inactive) with HCC 2998; 8.43 µM (inactive) with U-251; 8.85 µM (inactive) in the assay with SF-268; 14.5 µM (inactive) in the assay on NCI/ADR-RES; 14.5 µM (inactive) with M14. Moreover, the GI50 with HL-60 is 1.26 µM (inactive); in the assay with SW-620, 10.2 µM (inactive); in the assay with HT-29, 11.4 µM (inactive); in the assay with KM12, 19.2 µM (inactive); with UACC-62 it was 4.98 µM (inactive); in the assay on NCI-H226 it was 12.9 µM (inactive). Further, the GI50 is 17.8 µM (inactive) in the assay on HOP-18; 15.5 µM (inactive) in the assay on RXF 393; 12.4 µM in the assay with HCT-15; 13.6 µM (inactive) in the assay with SNB-19; 1.66 µM (inactive) in the assay with MOLT-4; 11.3 µM (inactive) with HOP-62.
`CC[C@H]1CN2CCc3cc(OC)c(OC)cc3[C@@H]2C[C@@H]1C[C@H]1NCCc2c1[nH]c1ccc(O)cc21` [TUBULOSINE]: the GI50 with A549 is < 0.01 µM (active); with HCC 2998, < 0.0105 µM (active); with U-251, < 0.0103 µM (active); with SF-268, < 0.0105 µM (active); with NCI/ADR-RES, 1.73 µM (inactive); in the assay with M14, < 0.0125 µM (active). Besides, the GI50 in the assay with PC-3 is < 0.0156 µM (active); with HL-60, < 0.01 µM (active); in the assay on MDA-N, < 0.01 µM (active); in the assay with SW-620, < 0.0119 µM (active); in the assay with HT-29 it was < 0.01 µM (active); in the assay on KM12, 0.0246 µM (active). In addition, the GI50 was 0.0182 µM (active) in the assay with UACC-62; < 0.0113 µM (active) in the assay on NCI-H226; 0.0454 µM (active) in the assay on HOP-18; 0.016 µM (active) in the assay with RXF 393; 0.384 µM with HCT-15; < 0.01 µM (active) with SNB-19. In addition, the GI50 with MOLT-4 and in the assay on HOP-62 was < 0.01 µM (active) throughout.
